From PubChem BioAssay AID1259408 (Genetic Toxicology Data Bank (GENE-TOX), 2018)
Active and inactive are the calls of the source. The rule behind the calls is not given here.

System: GENE-TOX genotoxicity assays, various organisms and cells
Test: GENE-TOX mutagenicity studies
Settings: for call: Assay Type: In vivo carcinogenicity studies, Assay Code: CCG+
[1] = Species/Cell Type: Salmonella typhimurium (one or more of the five standard strains: TA98, TA100, TA1535, TA1537, and TA1538), Assay Type: Histidine reverse gene mutation, Ames assay, Assay Code: SALT, Evaluation Type: Evaluation A (Pre-1980)
[2] = Species/Cell Type: Human, Assay Type: Sister-chromatid exchange (SCE) in vitro, Assay Code: SC1+D, Dose Response: With dose response, Evaluation Type: Evaluation B (Post-1980)
[3] = Species/Cell Type: Salmonella typhimurium (one or more of the five standard strains: TA98, TA100, TA1535, TA1537, and TA1538), Assay Type: Histidine reverse gene mutation, Ames assay, Assay Code: SAL-, Evaluation Type: Evaluation A (Pre-1980)
[4] = Species/Cell Type: Bacillus subtilis (H17 vs M45T), Assay Type: Rec-assay, spot test, DNA effects (bacterial DNA repair), Assay Code: REX+, Evaluation Type: Evaluation A (Pre-1980)
[5] = Species/Cell Type: Salmonella typhimurium (one or more of the five standard strains: TA98, TA100, TA1535, TA1537, and TA1538), Assay Type: Histidine reverse gene mutation, Ames assay, Assay Code: SAL+, Evaluation Type: Evaluation A (Pre-1980)
[6] = Species/Cell Type: Fischer rat embryo (RLV/1706) cells, Assay Type: Cell transformation, viral enhanced, Assay Code: CTR+, Evaluation Type: Evaluation A (Pre-1980)
[7] = Species/Cell Type: Human, Sex: Male, Assay Type: Sperm morphology, Assay Code: SPH+, Evaluation Type: Evaluation A (Pre-1980)
[8] = Species/Cell Type: Nonhuman, Evaluation Type: Evaluation A (Pre-1980)

For `CN(CCCCC(=O)OC[C@H](N)C(=O)O)N=O`, the mutagenic call (Species/Cell Type: Escherichia coli polA (W3110 vs P3478), Assay Type: Rec-assay, DNA effects (bacterial DNA repair), Assay Code: RE2T, Evaluation Type: Evaluation A (Pre-1980)) was “no conclusion” and the mutagenic call (Species/Cell Type: Escherichia coli polA (W3119 vs P3478), Assay Type: Rec-assay, DNA effects (bacterial DNA repair), Assay Code: RE1T, Evaluation Type: Evaluation A (Pre-1980)) was “no conclusion”.

With `OCC(Cl)(Cl)Cl` the mutagenic call [1] was “no conclusion”.

`C/C=C(C)/C=C/C=C(C)/C=C/C1=C(C)CCCC1(C)C` was tested, and the mutagenic call [2] was “active; positive”.

In the case of `CN(C)c1ccc(-c2ccc(N(C)C)cc2)cc1`, the mutagenic call [3] is reported as “inactive; negative”.

`C/C=C(\C(=C/C)c1ccc(O)cc1)c1ccc(O)cc1` was tested, and the mutagenic call [2] was “active; positive”.

`CN(C)c1ccc(N=Nc2ccc(S(=O)(=O)O)cc2)cc1` was tested, and the mutagenic call (Species/Cell Type: Bacillus subtilis (H17 vs M45T), Assay Type: Rec-assay, spot test, DNA effects (bacterial DNA repair), Assay Code: REXT, Evaluation Type: Evaluation A (Pre-1980)) was “no conclusion”, the mutagenic call (Species/Cell Type: Mammalian polychromatic erythrocytes, Assay Type: Micronucleus test, chromosome aberrations, Assay Code: MNTT, Evaluation Type: Evaluation A (Pre-1980)) was “no conclusion” and the mutagenic call (Species/Cell Type: Mouse, Sex: Male, Assay Type: Sperm morphology, Assay Code: SPI-, Evaluation Type: Evaluation A (Pre-1980)) was “inactive; negative”. For the same molecule, the mutagenic call (Species/Cell Type: Nonhuman, Assay Type: Sister-chromatid exchange (SCE) in vitro, Assay Code: SC2+, Evaluation Type: Evaluation B (Post-1980)) was “active; positive” and the mutagenic call [3] was “inactive; negative”.

In the case of `O=C1OC2(c3cc(Br)c(O)c(Br)c3Oc3c2cc(Br)c(O)c3Br)c2c(Cl)ccc(Cl)c21`, the mutagenic call (Species/Cell Type: Bacillus subtilis (H17 vs M45), Assay Type: Rec-assay, spot test, DNA effects (bacterial DNA repair), Assay Code: REW-, Evaluation Type: Evaluation A (Pre-1980)) is reported as “inactive; negative” and the mutagenic call [4] is reported as “active; positive”.

`CC(C)c1ccccc1OC(=O)N(C)N=O` was tested, and the mutagenic call [4] was “active; positive” and the mutagenic call (Species/Cell Type: Escherichia coli WP2, Assay Type: Tryptophan reverse gene mutation, Assay Code: WP2+, Evaluation Type: Evaluation A (Pre-1980)) was “active; positive”.

With `CC(=O)NCc1nc(-c2ccc([N+](=O)[O-])o2)no1` the mutagenic call [5] was “active; positive”.

For `CC(=O)OC[C@H]1O[C@@H](Oc2ccc(O)c3c2C(=O)c2ccccc2C3=O)[C@H](OC(C)=O)[C@@H](OC(C)=O)[C@@H]1OC(C)=O`, the mutagenic call [1] was “no conclusion”.

With `COc1cccc2c1C(=O)c1c(O)c3c(c(O)c1C2=O)C[C@@](O)(C(=O)CO)C[C@@H]3O[C@H]1C[C@H](N)[C@H](O)[C@H](C)O1` the mutagenic call (Species/Cell Type: Chinese hamster lung (V79) cells, Assay Type: Forward gene mutation at the HPRT or ouabain locus, Assay Code: V79+, Evaluation Type: Evaluation A (Pre-1980)) was “active; positive”, the mutagenic call (Species/Cell Type: Chinese hamster ovary (CHO) cells, Assay Type: Forward gene mutation at the HPRT locus, Assay Code: CHO+, Evaluation Type: Evaluation B (Post-1980)) was “active; positive” and the mutagenic call [6] was “active; positive”. The mutagenic call (Species/Cell Type: Human lymphocytes or leukocytes, Assay Type: Chromosome aberrations in vitro, Assay Code: CY7+, Evaluation Type: Evaluation A (Pre-1980)) was “active; positive”, the mutagenic call (Species/Cell Type: Human lymphocytes, Assay Type: Sister-chromatid exchange (SCE) in vitro, Assay Code: SCL+D, Dose Response: With dose response, Evaluation Type: Evaluation B (Post-1980)) was “active; positive” and the mutagenic call (Species/Cell Type: Human lymphocytes, Assay Type: Sister-chromatid exchange (SCE) in vivo, Assay Code: SCY+D, Dose Response: With dose response, Evaluation Type: Evaluation A (Pre-1980)) was “active; positive”. The mutagenic call (Species/Cell Type: Human, Assay Type: Sister-chromatid exchange (SCE) in vitro, Assay Code: SC1+D, Dose Response: With dose response, Evaluation Type: Evaluation A (Pre-1980)) was “active; positive”, the mutagenic call [7] was “active; positive” and the mutagenic call (Species/Cell Type: Mammalian polychromatic erythrocytes, Assay Type: Micronucleus test, chromosome aberrations, Assay Code: MNT+, Evaluation Type: Evaluation A (Pre-1980)) was “active; positive”. The mutagenic call (Species/Cell Type: Mouse, Sex: Male, Assay Type: Sperm morphology, Assay Code: SPI+, Evaluation Type: Evaluation A (Pre-1980)) was “active; positive”, the call [8] was “active; positive” and the mutagenic call (Species/Cell Type: Nonhuman, Assay Type: Sister-chromatid exchange (SCE) in vitro, Assay Code: SC2+D, Dose Response: With dose response, Evaluation Type: Evaluation A (Pre-1980)) was “active; positive”. The mutagenic call (Species/Cell Type: Nonhuman, Assay Type: Sister-chromatid exchange (SCE) in vivo, Assay Code: SC3+D, Dose Response: With dose response, Evaluation Type: Evaluation A (Pre-1980)) was “active; positive” and the mutagenic call [5] was “active; positive”.

`CN(C)c1ccc(C(=O)c2ccc(N(C)C)cc2)cc1` was tested, and the mutagenic call [6] was “active; positive” and the call [8] was “active; positive”.

For `CC(=O)Nc1ccccc1O`, the mutagenic call (Species/Cell Type: Human, Assay Type: Sister-chromatid exchange (SCE) in vitro, Assay Code: SC1T, Evaluation Type: Evaluation B (Post-1980)) was “no conclusion”.

In the case of `C#CC(OC(=O)NC1CCCCC1)(c1ccccc1)c1ccccc1`, the mutagenic call (Species/Cell Type: Human diploid fibroblasts, Assay Type: Unscheduled DNA synthesis (UDS) in vitro, DNA effects, Assay Code: UDHT, Evaluation Type: Evaluation A (Pre-1980)) is reported as “no conclusion” and the mutagenic call [5] is reported as “active; positive”.

With `O=C1NC(c2ccc([N+](=O)[O-])s2)Nc2ccccc21` (configuration not stated) the mutagenic call [5] was “active; positive”.

With `CCN(CC)CCOc1ccc(C(=C(Cl)c2ccccc2)c2ccccc2)cc1` the mutagenic call (Species/Cell Type: Human, Sex: Male, Assay Type: Sperm morphology, Assay Code: SPHT, Evaluation Type: Evaluation A (Pre-1980)) was “no conclusion” and the mutagenic call (Species/Cell Type: Mammalian polychromatic erythrocytes, Assay Type: Micronucleus test, chromosome aberrations, Assay Code: MNTT, Evaluation Type: Evaluation B (Post-1980)) was “no conclusion”.

For `c1ccc2c(c1)cnc1ccccc12`, the mutagenic call (Species/Cell Type: Salmonella typhimurium (one or more of the five standard strains: TA98, TA100, TA1535, TA1537, and TA1538), Assay Type: Histidine reverse gene mutation, Ames assay, Assay Code: SAL+*, Activation: With metabolic activation, Evaluation Type: Evaluation A (Pre-1980)) was “active; positive”.

With `C[C@H]1CCCCN1N=O` the call [8] was “active; positive”.

With `Cc1ccc(N)cc1` the mutagenic call (Species/Cell Type: Escherichia coli polA (W3110 vs P3478), Assay Type: Rec-assay, DNA effects (bacterial DNA repair), Assay Code: RE2-, Evaluation Type: Evaluation A (Pre-1980)) was “inactive; negative”, the mutagenic call (Species/Cell Type: Escherichia coli polA (W3119 vs P3478), Assay Type: Rec-assay, DNA effects (bacterial DNA repair), Assay Code: RE1-, Evaluation Type: Evaluation A (Pre-1980)) was “inactive; negative” and the mutagenic call (Species/Cell Type: Saccharomyces cerevisiae, Assay Type: Mitotic recombination or gene conversion, Assay Code: YEH+*, Activation: With metabolic activation, Evaluation Type: Evaluation A (Pre-1980)) was “active; positive”. The mutagenic call (Species/Cell Type: Saccharomyces cerevisiae, Assay Type: Mitotic recombination or gene conversion, Assay Code: YEH-, Evaluation Type: Evaluation A (Pre-1980)) was “inactive; negative”.

In the case of `O=[N+]([O-])c1ccc2ncccc2c1`, the mutagenic call [5] is reported as “active; positive”.

With `COC(=O)/C=C(\C)CCCC(C)(Cl)CCCC(C)(C)Cl` (configuration not stated) the mutagenic call (Species/Cell Type: Drosophila melanogaster, Assay Type: Sex-linked recessive lethal gene mutation, Assay Code: SRLT, Evaluation Type: Evaluation A (Pre-1980)) was “no conclusion”.

For `C/C=C/C#CC#CC#C/C=C/C(O)CO` (configuration not stated), the mutagenic call (Species/Cell Type: Nonhuman, Assay Type: Sister-chromatid exchange (SCE) in vitro, Assay Code: SC2T, Evaluation Type: Evaluation B (Post-1980)) was “no conclusion”.

With `O=C(O)c1ccc2c([N+](=O)[O-])cccc2n1` the mutagenic call [5] was “active; positive”.

With `O=[N+]([O-])c1ccc(C=NCCO)o1` the mutagenic call [5] was “active; positive”.

For `N[C@@H](CC(=O)O)C(=O)O`, the mutagenic call (Species/Cell Type: Allium cepa, Assay Type: Chromosome aberrations, Assay Code: ALC+D, Dose Response: With dose response, Evaluation Type: Evaluation A (Pre-1980)) was “active; positive” and the mutagenic call [7] was “active; positive”.
